From patent publication US20230339851A1, “CXCR6 SULFONAMIDE COMPOUNDS” (CHEMOCENTRYX, INC., priority 2022, published 2023)

molecular target: T1, human CXCR6 (Homo sapiens, UniProt O00574); test: Radioligand Binding Assay (125I-CXCL16 displacement); details: L1.2 cells stably transfected with human CXCR6 cDNA, 0.1 nM 125I-CXCL16, 4° C., three-hour incubation; read-out: Potency (IC50)
T1 construct: expressed in transfected cells
Procedure, shortened: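 L1.2 cells stably expressing human CXCR6 incubated 3 h at 4 °C in HBSS/0.1% BSA with 0.1 nM 125I-CXCL16 and graded compound concentrations. Bound radioactivity collected by filtration and counted; IC50 from 3-parameter nonlinear regression.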

T1 sequence (O00574 whole entry): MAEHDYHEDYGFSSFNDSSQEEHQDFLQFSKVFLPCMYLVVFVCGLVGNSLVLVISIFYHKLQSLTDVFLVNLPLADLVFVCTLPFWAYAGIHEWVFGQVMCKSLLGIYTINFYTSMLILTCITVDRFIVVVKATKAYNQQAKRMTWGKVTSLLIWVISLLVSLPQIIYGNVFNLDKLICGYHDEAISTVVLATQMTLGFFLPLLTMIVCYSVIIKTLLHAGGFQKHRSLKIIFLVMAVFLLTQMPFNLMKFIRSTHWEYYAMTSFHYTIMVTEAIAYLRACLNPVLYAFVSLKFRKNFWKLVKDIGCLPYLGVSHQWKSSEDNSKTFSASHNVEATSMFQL

SMILES	IC50
CCOc1cc(NC(=O)[C@@H](NC(C)=O)C(C)C)ccc1S(=O)(=O)Nc1cccc(OC(F)(F)F)c1 [Example 1.415]	≤ 200 nM
CCOc1cc(NC(=O)[C@@H](O)C2CCCC2)ccc1S(=O)(=O)Nc1cccc(OC(F)(F)F)c1 [Example 1.416]	≤ 200 nM
COc1cc(NC(=O)C2CCCCC2C)ccc1S(=O)(=O)Nc1cccc(C(F)(F)F)c1 (centres unmarked) [Example 1.417]	750 to 2000 nM
CCOc1cc(NC(=O)C(CC)CO)ccc1S(=O)(=O)Nc1cccc(OC(F)(F)F)c1 (centres unmarked) [Example 1.418]	≤ 200 nM
COc1cc(NC(=O)CC2CCCCCC2)ccc1S(=O)(=O)Nc1cccc(C(F)(F)F)c1 [Example 1.419]	2000 to 20000 nM
CCOc1cc(NC(=O)C2CCCOC2)ccc1S(=O)(=O)Nc1cccc(OC(F)(F)F)c1 (centres unmarked) [Example 1.420]	200 to 750 nM
CCOc1cc(NC(=O)C(CC(C)C)C(=O)O)ccc1S(=O)(=O)Nc1cccc(OC(F)(F)F)c1 (centres unmarked) [Example 1.421]	≤ 200 nM
Cc1cc(NC(=O)[C@@H]2CCCN2C)ccc1S(=O)(=O)Nc1cccc(C(F)(F)F)c1 [Example 1.422]	2000 to 20000 nM
COCCC(=O)Nc1ccc(S(=O)(=O)Nc2cccc(C(F)(F)F)c2)c(OC)c1 [Example 1.423]	2000 to 20000 nM
COCC1(C(=O)Nc2ccc(S(=O)(=O)Nc3cccc(C(F)(F)F)c3)c(C)c2)CC1 [Example 1.424]	2000 to 20000 nM
CCOc1cc(NC(=O)[C@@H](CO)c2ccccc2)ccc1S(=O)(=O)Nc1ccc(C)c(C(F)(F)F)c1 [Example 1.425]	≤ 200 nM
COc1cc(NC(=O)[C@@H]2CCC[C@H]2NC(=O)OC(C)(C)C)ccc1S(=O)(=O)Nc1cccc(C(F)(F)F)c1 [Example 1.426]	2000 to 20000 nM
CCOc1cc(NC(=O)C2CCNCC2)ccc1S(=O)(=O)Nc1cccc(OC(F)(F)F)c1 [Example 1.427]	2000 to 20000 nM
CCOc1cc(NC(=O)C(CO)CC2CC=CCC2)ccc1S(=O)(=O)Nc1cccc(OC(F)(F)F)c1 (centres unmarked) [Example 1.428]	≤ 200 nM
CCOc1cc(NC(=O)[C@@H](NC(=O)OC(C)(C)C)c2ccccc2)ccc1S(=O)(=O)Nc1cccc(OC(F)(F)F)c1 [Example 1.429]	200 to 750 nM
COc1cc(NC(=O)c2cc(C(F)(F)F)nn2C)ccc1S(=O)(=O)Nc1cccc(C(F)(F)F)c1 [Example 1.430]	750 to 2000 nM
CCOc1cc(NC(=O)[C@@H](O)C(C)C)ccc1S(=O)(=O)Nc1ccc(F)c(CC)c1 [Example 1.431]	≤ 200 nM
CCOc1cc(NC(=O)[C@H]2CCCC[C@H]2O)ccc1S(=O)(=O)Nc1cccc(OC(F)(F)F)c1 [Example 1.432]	≤ 200 nM
CCOc1cc(NC(=O)C2CCN(C(=O)OC(C)(C)C)CC2)ccc1S(=O)(=O)Nc1cccc(OC(F)(F)F)c1 [Example 1.433]	2000 to 20000 nM
Cc1cc(NC(=O)C(C)(C)C)ccc1S(=O)(=O)Nc1cccc(C(F)(F)F)c1 [Example 1.434]	2000 to 20000 nM
CCOc1cc(NC(=O)C(C)C(O)C2CCCOC2)ccc1S(=O)(=O)Nc1cccc(OC(F)(F)F)c1 (centres unmarked) [Example 1.435]	200 to 750 nM
CCOc1cc(NC(=O)C(C(=O)O)C2CCOC2)ccc1S(=O)(=O)Nc1cccc(OC(F)(F)F)c1 (centres unmarked) [Example 1.436]	≤ 200 nM
CCOc1cc(NC(=O)[C@@H](CO)c2ccccc2)ccc1S(=O)(=O)Nc1cccc(C(F)(F)F)c1 [Example 1.437]	≤ 200 nM
COc1cc(NC(=O)[C@@H](O)C(C)C)ccc1S(=O)(=O)Nc1cccc(OC(F)(F)F)c1 [Example 1.438]	≤ 200 nM

SMILES	IC50
CCOc1cc(NC(=O)[C@@H](CO)c2ccccc2)ccc1S(=O)(=O)Nc1ccc(C)c(C(C)C)c1 [Example 1.439]	≤ 200 nM
CCOc1cc(NC(=O)[C@@H](O)C(C)C)ccc1S(=O)(=O)Nc1ccc(F)c(C)c1 [Example 1.440]	200 to 750 nM
CCOc1cc(NC(=O)[C@@H](CO)c2ccccc2)ccc1S(=O)(=O)Nc1ccc(C)c(Cl)c1 [Example 1.441]	200 to 750 nM
COc1cc(NC(=O)C2CC(=O)N(C)C2)ccc1S(=O)(=O)Nc1cccc(OC(F)(F)F)c1 (centres unmarked) [Example 1.442]	2000 to 20000 nM
Cc1cc(NC(=O)c2cccc(C(F)(F)F)c2)ccc1S(=O)(=O)Nc1cccc(C(F)(F)F)c1 [Example 1.443]	2000 to 20000 nM
CC(=O)Nc1cc(C)c(S(=O)(=O)Nc2cccc(OC(F)(F)F)c2)c(F)c1 [Example 1.444]	2000 to 20000 nM
CCOc1cc(NC(=O)[C@@H](O)C(C)C)ccc1S(=O)(=O)Nc1ccc(C)c(C(C)C)c1 [Example 1.445]	≤ 200 nM
CCOc1cc(NC(=O)C(c2ccccc2)C(C)O)ccc1S(=O)(=O)Nc1cccc(OC(F)(F)F)c1 (centres unmarked) [Example 1.446]	≤ 200 nM
Cc1cc(NC(=O)c2ccccc2)ccc1S(=O)(=O)Nc1cccc(C(F)(F)F)c1 [Example 1.447]	200 to 750 nM
COc1cc(NC(=O)c2ccnn2C)ccc1S(=O)(=O)Nc1cc(OC(F)(F)F)ccc1F [Example 1.448]	200 to 750 nM
CCOc1cc(NC(=O)[C@H]2CCCC[C@H]2OC)ccc1S(=O)(=O)Nc1cccc(OC(F)(F)F)c1 [Example 1.449]	2000 to 20000 nM
Cc1cc(NC(=O)[C@@H](N)c2ccccc2)ccc1S(=O)(=O)Nc1cccc(OC(F)(F)F)c1 [Example 1.450]	≤ 200 nM
CC(=O)Nc1cc(C)c(S(=O)(=O)Nc2cccc(C(F)(F)F)c2)c(F)c1 [Example 1.451]	2000 to 20000 nM
CCOc1cc(NC(=O)C(O)c2ccc(F)cc2)ccc1S(=O)(=O)Nc1cccc(OC(F)(F)F)c1 (centres unmarked) [Example 1.452]	≤ 200 nM
CCOc1cc(NC(=O)[C@H]2CC=CC[C@@H]2CO)ccc1S(=O)(=O)Nc1cccc(OC(F)(F)F)c1 [Example 1.453]	≤ 200 nM
CCOc1cc(NC(=O)[C@@H](N)C(C)C)ccc1S(=O)(=O)Nc1cccc(OC(F)(F)F)c1 [Example 1.454]	≤ 200 nM
CCOc1cc(NC(=O)C(CO)C2CCCC2)ccc1S(=O)(=O)Nc1cccc(OC(F)(F)F)c1 (centres unmarked) [Example 1.455]	≤ 200 nM
CC(C)c1cc(NC(=O)c2ccnn2C)ccc1S(=O)(=O)Nc1cccc(OC(F)(F)F)c1 [Example 1.456]	200 to 750 nM
COc1cc(NC(=O)C2CCCCC2=O)ccc1S(=O)(=O)Nc1cccc(OC(F)(F)F)c1 (centres unmarked) [Example 1.457]	2000 to 20000 nM
CCOc1cc(NC(=O)C2CCCN(C(=O)OC(C)(C)C)C2)ccc1S(=O)(=O)Nc1cccc(OC(F)(F)F)c1 (centres unmarked) [Example 1.458]	2000 to 20000 nM
Cc1cc(NC(=O)[C@@H](CO)c2ccccc2)ccc1S(=O)(=O)Nc1cccc(C(F)(F)F)c1 [Example 1.459]	750 to 2000 nM
COc1cc(NC(=O)[C@@H](CO)C(C)C)ccc1S(=O)(=O)Nc1cccc(C(F)(F)F)c1 [Example 1.460]	≤ 200 nM
Cn1nccc1C(=O)Nc1ccc(S(=O)(=O)Nc2cccc(C(F)(F)F)c2)c(OC(F)(F)F)c1 [Example 1.461]	750 to 2000 nM
CCOc1cc(NC(=O)[C@@H](N)c2ccccc2)ccc1S(=O)(=O)Nc1ccc(C)c(OC(F)(F)F)c1 [Example 1.462]	≤ 200 nM

SMILES	IC50
CCOc1cc(NC(=O)[C@@H](N)C2CCCC2)ccc1S(=O)(=O)Nc1cccc(OC(F)(F)F)c1 [Example 1.463]	≤ 200 nM
CCOc1cc(NC(=O)C2CCCN(C(C)=O)C2)ccc1S(=O)(=O)Nc1cccc(OC(F)(F)F)c1 (centres unmarked) [Example 1.465]	2000 to 20000 nM
CCOc1cc(NC(=O)C(O)c2ccc(C)cc2)ccc1S(=O)(=O)Nc1cccc(OC(F)(F)F)c1 (centres unmarked) [Example 1.466]	200 to 750 nM
Cc1cc(NC(=O)C(F)(F)F)ccc1S(=O)(=O)Nc1cccc(C(F)(F)F)c1 [Example 1.467]	2000 to 20000 nM
CCOc1cc(NC(=O)C2CCC[C@H]2O)ccc1S(=O)(=O)Nc1cccc(OC(F)(F)F)c1 (some centres unmarked) [Example 1.468]	200 to 750 nM
COc1cc(NC(=O)c2ccnn2C)ccc1S(=O)(=O)Nc1ccc(Cl)c(OC(F)(F)F)c1 [Example 1.469]	≤ 200 nM
CCOc1cc(NC(=O)C2CCS(=O)(=O)CC2)ccc1S(=O)(=O)Nc1cccc(OC(F)(F)F)c1 [Example 1.470]	2000 to 20000 nM
COc1cc(NC(=O)[C@@H]2CCCNC2)ccc1S(=O)(=O)Nc1cccc(C(F)(F)F)c1 [Example 1.471]	2000 to 20000 nM
COc1cc(NC(=O)C2NC3CCC2C3)ccc1S(=O)(=O)Nc1cccc(C(F)(F)F)c1 (centres unmarked) [Example 1.472]	2000 to 20000 nM
CCOc1cc(NC(=O)C(CO)c2ccccc2)ccc1S(=O)(=O)Nc1cccc(OC(F)(F)F)c1 (centres unmarked) [Example 1.473]	≤ 200 nM
CCOc1cc(NC(=O)CC2(O)CCCCC2)ccc1S(=O)(=O)Nc1cccc(OC(F)(F)F)c1 [Example 1.474]	200 to 750 nM
CCOc1cc(NC(=O)C2CCNC(=O)C2)ccc1S(=O)(=O)Nc1cccc(OC(F)(F)F)c1 (centres unmarked) [Example 1.475]	2000 to 20000 nM
CCOCCOCCC(C(=O)O)C(=O)Nc1ccc(S(=O)(=O)Nc2cccc(OC(F)(F)F)c2)c(OCC)c1 (centres unmarked) [Example 1.476]	200 to 750 nM
Cc1cc(NC(=O)C2CCCOC2)ccc1S(=O)(=O)Nc1cccc(C(F)(F)F)c1 (centres unmarked) [Example 1.478]	750 to 2000 nM
CCOc1cc(NC(=O)C(C(=O)O)C2CCCC2)ccc1S(=O)(=O)Nc1cccc(OC(F)(F)F)c1 (centres unmarked) [Example 1.479]	≤ 200 nM
CCOc1cc(NC(=O)C2CC=CCC2)ccc1S(=O)(=O)Nc1cccc(OC(F)(F)F)c1 (centres unmarked) [Example 1.480]	200 to 750 nM
CC(=O)N[C@H](C(=O)Nc1ccc(S(=O)(=O)Nc2cccc(OC(F)(F)F)c2)c(C)c1)c1ccccc1 [Example 1.481]	≤ 200 nM
CC(C)[C@H](CO)C(=O)Nc1ccc(S(=O)(=O)Nc2cccc(OC(F)(F)F)c2)c(C#N)c1 [Example 1.482]	≤ 200 nM
CCOc1cc(NC(=O)C(C(=O)O)C2CCCCC2)ccc1S(=O)(=O)Nc1cccc(OC(F)(F)F)c1 (centres unmarked) [Example 1.484]	≤ 200 nM
CCOc1cc(NC(=O)CC(O)c2nccs2)ccc1S(=O)(=O)Nc1cccc(OC(F)(F)F)c1 (centres unmarked) [Example 1.485]	200 to 750 nM
Cc1cc(NC(=O)c2cccn2C)ccc1S(=O)(=O)Nc1cccc(C(F)(F)F)c1 [Example 1.486]	750 to 2000 nM
CCc1cc(NC(=O)C(NC(C)=O)C(C)C)ccc1S(=O)(=O)Nc1cccc(OC(F)(F)F)c1 (centres unmarked) [Example 1.487]	≤ 200 nM
CCOc1cc(NS(=O)(=O)c2ccc(NC(=O)[C@@H](CO)C(C)C)cc2OCC)ccc1Cl [Example 1.488]	200 to 750 nM
